Source: US8247211B2, “Glycopeptide antibiotics” (American Cyanamid Company, priority 2001, dated 2012)
Values after ≈ are worked out from the molar mass of the structure shown.

What was measured:
Enterococcus sp. = experiment: In vitro antibacterial evaluation: minimum inhibitory concentration (MIC), broth dilution method; assay type: cell-based; details: 18 hours at 35° C.
Procedure, shortened: (§1)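 Using Muller-Hinton II […] and an inoculum of 5×10^5 CFU/mL, antibiotic dilutions from 64 down to 0.06 μg/mL were tested following NCCLS M7-A2. The MIC is the lowest concentration inhibiting growth, including in methicillin-, penicillin- or vancomycin-resistant clinical isolates.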

Escherichia coli = experiment: as above; assay type: cell-based; details: 18 hours at 35° C.
Procedure, shortened: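 NCCLS M7-A2 broth dilution with Mueller-Hinton II, testing 64-0.06 μg/mL antibiotic against 5×10^5 CFU/mL inocula. Test strains include recent methicillin-, penicillin- or vancomycin-resistant clinical isolates. MIC is the lowest concentration preventing growth.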

Staphylococcus sp. = experiment: as above; assay type: cell-based
Procedure, shortened: as §1

Streptococcus sp. = experiment: as above; assay type: cell-based; details: 18 hours at 35° C.
Procedure, shortened: as §1

[1] = system: Staphylococcus aureus-SMITH (GC 4543); experiment: Acute lethal infection in mice (ED50); assay type: in vivo; details: female CD-1 mice, intraperitoneal challenge, intravenous dose 30 min. after infection, 7 day survival ratios
Procedure, shortened: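 Female CD-1 mice challenged intraperitoneally with a bacterial dose lethal to untreated controls within 24-48 h. Compound given intravenously in saline or 5% dextrose 30 min post-infection, five mice per dose; ED50 from 7-day survival pooled over 3 tests.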

[2] = Anatomic pathology (heart and kidney histopathology) in mice; assay type: in vivo, CD-1 mice; details: 20 mg/kg intravenously daily for 9 days, microscopic histopathology on day 10
Procedure, shortened: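 Juvenile CD-1 mice (20 days old; 5 vehicle, 5 treated) received glycopeptide antibiotic 20 mg/kg i.v. daily for 9 days. Necropsied tissues formalin-fixed, paraffin-embedded, H&E stained and examined microscopically; findings graded slight to severe versus controls.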

[3] = broth dilution, inoculum 5×10^5 CFU/mL

In the case of `CC(c1ccccc1)C1NC(=O)CNC(=O)C(CO)NC(=O)C(CC2CNC(=N)N2C2OC(CO)C(O)C(O)C2O)NC(=O)C(CC2CNC(=N)N2)NC(=O)C(Cc2ccc(OC3OC(CO)C(OC4OC5COC6(OC5C(O)C4O)C4CC5CC(C4)CC6C5)C(O)C3O)cc2)NC1=O` (stereo not shown) [Example 219], the “MIC Enterococcus avium (GC 4558)” value (Enterococcus sp.; Enterococcus avium (GC 4558)) is reported as 4 µg/mL (≈ 2.87 µM), the “MIC Enterococcus faecalis (ATCC 29212)” value (Enterococcus sp.; Enterococcus faecalis (ATCC 29212)) is reported as 16 µg/mL (≈ 11.5 µM) and the “MIC Enterococcus faecalis (GC 2242)” value (Enterococcus sp.; Enterococcus faecalis (GC 2242)) is reported as 8 µg/mL (≈ 5.73 µM). The “MIC Enterococcus faecalis (GC 2691)” value (Enterococcus sp.; Enterococcus faecalis (GC 2691)) was 8 µg/mL (≈ 5.73 µM), the “MIC Enterococcus faecalis (GC 3059)” value (Enterococcus sp.; Enterococcus faecalis (GC 3059)) was 16 µg/mL (≈ 11.5 µM) and the “MIC Enterococcus faecalis (GC 4552)” value (Enterococcus sp.; Enterococcus faecalis (GC 4552)) was 8 µg/mL (≈ 5.73 µM). For the same compound, the “MIC Enterococcus faecalis (GC 4553)” value (Enterococcus sp.; Enterococcus faecalis (GC 4553)) was 8 µg/mL (≈ 5.73 µM), the “MIC Enterococcus faecalis (GC 4554)” value (Enterococcus sp.; Enterococcus faecalis (GC 4554)) was 8 µg/mL (≈ 5.73 µM) and the “MIC Enterococcus faecalis (GC 6189)” value (Enterococcus sp.; Enterococcus faecalis (GC 6189)) was 8 µg/mL (≈ 5.73 µM). The “MIC Enterococcus faecium (GC 2243)” value (Enterococcus sp.; Enterococcus faecium (GC 2243)) was 8 µg/mL (≈ 5.73 µM), the “MIC Enterococcus faecium (GC 4556)” value (Enterococcus sp.; Enterococcus faecium (GC 4556)) was 8 µg/mL (≈ 5.73 µM) and the “MIC Enterococcus faecium (GC 4557)” value (Enterococcus sp.; Enterococcus faecium (GC 4557)) was 4 µg/mL (≈ 2.87 µM). For the same compound, the “MIC Enterococcus avium (GC 4558)” value (Enterococcus sp.; [3]) was 4 µg/mL (≈ 2.87 µM), the “MIC Enterococcus faecalis (ATCC 29212)” value (Enterococcus sp.; [3]) was 16 µg/mL (≈ 11.5 µM) and the “MIC Enterococcus faecalis (GC 2242)” value (Enterococcus sp.; [3]) was 8 µg/mL (≈ 5.73 µM). The “MIC Enterococcus faecalis (GC 2691)” value (Enterococcus sp.; [3]) was 8 µg/mL (≈ 5.73 µM), the “MIC Enterococcus faecalis (GC 3059)” value (Enterococcus sp.; [3]) was 16 µg/mL (≈ 11.5 µM) and the “MIC Enterococcus faecalis (GC 4552)” value (Enterococcus sp.; [3]) was 8 µg/mL (≈ 5.73 µM). For the same compound, the “MIC Enterococcus faecalis (GC 4553)” value (Enterococcus sp.; [3]) was 8 µg/mL (≈ 5.73 µM), the “MIC Enterococcus faecalis (GC 4554)” value (Enterococcus sp.; [3]) was 8 µg/mL (≈ 5.73 µM) and the “MIC Enterococcus faecalis (GC 6189)” value (Enterococcus sp.; [3]) was 8 µg/mL (≈ 5.73 µM). The “MIC Enterococcus faecium (GC 2243)” value (Enterococcus sp.; [3]) was 8 µg/mL (≈ 5.73 µM), the “MIC Enterococcus faecium (GC 4556)” value (Enterococcus sp.; [3]) was 8 µg/mL (≈ 5.73 µM) and the “MIC Enterococcus faecium (GC 4557)” value (Enterococcus sp.; [3]) was 4 µg/mL (≈ 2.87 µM). For the same compound, the “MIC Escherichia coli (ATCC 25922)” value (Escherichia coli; Escherichia coli (ATCC 25922)) was 64 µg/mL (≈ 45.9 µM), the “MIC Escherichia coli (GC 4559)” value (Escherichia coli; Escherichia coli (GC 4559)) was 64 µg/mL (≈ 45.9 µM) and the “MIC Escherichia coli (GC 4560)” value (Escherichia coli; Escherichia coli (GC 4560)) was 4 µg/mL (≈ 2.87 µM). The “MIC Staphylococcus aureus (ATCC 29213)” value (Staphylococcus sp.; strain ATCC 29213) was 4 µg/mL (≈ 2.87 µM), the “MIC Staphylococcus aureus (GC 1131)” value (Staphylococcus sp.; strain GC 1131) was 4 µg/mL (≈ 2.87 µM) and the “MIC Staphylococcus aureus (GC 3051)” value (Staphylococcus sp.; strain GC 3051) was 2 µg/mL (≈ 1.43 µM). The “MIC Staphylococcus aureus (GC 3053)” value (Staphylococcus sp.; strain GC 3053) was 2 µg/mL (≈ 1.43 µM), the “MIC Staphylococcus aureus (GC 4541)” value (Staphylococcus sp.; strain GC 4541) was 2 µg/mL (≈ 1.43 µM) and the “MIC Staphylococcus aureus (GC 4542)” value (Staphylococcus sp.; strain GC 4542) was 2 µg/mL (≈ 1.43 µM). The “MIC Staphylococcus aureus-SMITH (GC 4543)” value (Staphylococcus sp.; strain GC 4543) was 2 µg/mL (≈ 1.43 µM), the “MIC Staphylococcus aureus (GC 4544)” value (Staphylococcus sp.; strain GC 4544) was 8 µg/mL (≈ 5.73 µM) and the “MIC Staphylococcus aureus (GC 4545)” value (Staphylococcus sp.; strain GC 4545) was 2 µg/mL (≈ 1.43 µM). The “MIC Staphylococcus haemolyticus (GC 4546)” value (Staphylococcus sp.; strain GC 4546) was 2 µg/mL (≈ 1.43 µM), the “MIC Coagulase Negative Staphylococcus (GC 4547)” value (Staphylococcus sp.; strain GC 4547) was 2 µg/mL (≈ 1.43 µM) and the “MIC Coagulase Negative Staphylococcus (GC 4548)” value (Staphylococcus sp.; strain GC 4548) was 2 µg/mL (≈ 1.43 µM). For the same compound, the “MIC Coagulase Negative Staphylococcus (GC 4549)” value (Staphylococcus sp.; strain GC 4549) was 2 µg/mL (≈ 1.43 µM), the “MIC Coagulase Negative Staphylococcus (GC 4551)” value (Staphylococcus sp.; strain GC 4551) was 4 µg/mL (≈ 2.87 µM) and the “MIC Coagulase Negative Staphylococcus (GC 6257)” value (Staphylococcus sp.; strain GC 6257) was 1 µg/mL (≈ 0.717 µM). The “MIC Streptococcus agalactiae (GC 4564)” value (Streptococcus sp.; Streptococcus agalactiae (GC 4564)) was 2 µg/mL (≈ 1.43 µM), the “MIC Streptococcus pneumoniae (ATCC 6301)” value (Streptococcus sp.; Streptococcus pneumoniae (ATCC 6301)) was 0.5 µg/mL (≈ 0.358 µM) and the “MIC Streptococcus pneumoniae (GC 1894)” value (Streptococcus sp.; Streptococcus pneumoniae (GC 1894)) was 1 µg/mL (≈ 0.717 µM). For the same compound, the “MIC Streptococcus pneumoniae (GC 4565)” value (Streptococcus sp.; Streptococcus pneumoniae (GC 4565)) was 2 µg/mL (≈ 1.43 µM), the “MIC Streptococcus pyogenes (GC 4563)” value (Streptococcus sp.; Streptococcus pyogenes (GC 4563)) was 2 µg/mL (≈ 1.43 µM) and the “MIC Streptococcus agalactiae (GC 4564)” value (Streptococcus sp.; [3]) was 2 µg/mL (≈ 1.43 µM). For the same compound, the “MIC Streptococcus pneumoniae (ATCC 6301)” value (Streptococcus sp.; [3]) was 0.5 µg/mL (≈ 0.358 µM), the “MIC Streptococcus pneumoniae (GC 1894)” value (Streptococcus sp.; [3]) was 1 µg/mL (≈ 0.717 µM) and the “MIC Streptococcus pneumoniae (GC 4565)” value (Streptococcus sp.; [3]) was 2 µg/mL (≈ 1.43 µM). For the same compound, the “MIC Streptococcus pyogenes (GC 4563)” value (Streptococcus sp.; [3]) was 2 µg/mL (≈ 1.43 µM), the median effective dose (ED50), Staphylococcus aureus-SMITH (GC 4543) [1] was 0.5 mg/kg and the “Anatomical Pathology (Day 10), Heart” value [2] was 0. For the same compound, the “Anatomical Pathology (Day 10), Kidney” value [2] was “+++”.
